The subject of data set [1] is 129 Sv/J Alport mouse. Description: TGF-β1 inhibitors in 129 Sv/J Alport mouse, transmission electron microscopy of GBM ultrastructure. Type of data set: in vivo. To be noted: 7 week old Alport mice, treated twice weekly from 3 weeks of age. The protocol: (§1) A. Transmission Electron Microscopy: Fresh external renal cortex was minced in 4% paraformaldehyde, allowed to fix for 2 hours, and stored at 5° C. in PBS (pH 7.4). The tissue was washed extensively (5 times for 10 minutes each at 4° C.) with 0.1M Sorenson's buffer (Sorenson's buffer was made by combining 100 ml of 200 mM monobasic sodium phosphate and 400 ml of 200 mM dibasic sodium phosphate with 500 ml of water, and adjusted to pH 7.4), and postfixed in 1% osmium tetroxide in Sorenson's buffer for 1 hour. The tissue was then dehydrated in graded ethanol (70%, then 80%, then 90%, then 100% for ten minutes each), and finally in propylene oxide and embedded in Poly/Bed 812 epoxy resin (Polysciences, Inc., Warrington, Pa.) following the procedures described by the manufacturer. In short, 42 ml of polybed 812 was mixed with 26 ml of dodecylsuccinic anhydride (DDSA, Polysciences, Inc.) and 24 ml of nadic methyl anhydride (Polysciences Inc.). One and a half mls of 2,4,6 tri(dimethly aminomethyl) phenol was added as a catalyst, and the activated resin frozen in 10 ml aliquots until needed for embedding specimen. Glomeruli were identified in 1 μm (micron) sections stained with toluidine blue, and thin sections were cut at 70 nm (nanometer) thickness using a Reichert Jung Ultracut E ultramicrotome (Cambridge Instrument Co, Vienna, Austria). […]

For data set [2], the system named is 129 Sv/J Alport mouse. Description: TGF-β1 inhibitors in 129 Sv/J Alport mouse, scanning electron microscopy of glomeruli. The format is in vivo. To be noted: 7 week old Alport mice, treated twice weekly from 3 weeks of age. From the text: B. Scanning Electron Microscopy: Small pieces (approximately 2 mm cubes) of kidney cortex were fixed in 3% phosphate buffered glutaraldehyde, then postfixed in 1% phosphate buffered osmium tetroxide. Samples were then dehydrated in graded ethanols, and critical point dried in carbon dioxide. The cubes were then cracked in pieces by stressing them with the edge of a razor blade, and mounted with glue onto stubs with the cracked surface facing upward. The surface was sputter coated with gold/palladium using well known procedures and visualized with a scanning electron microscope.
(§2) The experimental protocol was to inject with either FK506 (2 μg/g body weight, injected intraperitoneally, Fujisawa Pharmaceutical Co., Ltd., Osaka, Japan), or a soluble TGF-B1 receptor (25 μg/injection, intravenously through the tail vein, Biogen Inc., Cambridge, Mass.) twice weekly starting at 3 weeks of age. Kidneys were harvested at 7 weeks of age and subjected to the described analyses.
Some of the kidney specimen was processed for scanning electron microscopy. Glomeruli were exposed by freeze fracture of renal cortex, which removes the Bowman's capsule, exposing the outer layer of podocytes as they cover the capillary loops of the glomerulus. […]

The test system of data set [3] is double knockout (DKO) mice. Description: TGF-β1 inhibitors in double knockout mice, transmission electron microscopy of GBM ultrastructure. The note with it: treated twice weekly from 4 weeks, kidneys taken at 10 weeks. The format is in vivo, mouse. As to the method: as §1, with “Inc.).” for “Inc.). One and a half mls of 2,4,6 tri(dimethly aminomethyl) phenol was added as a catalyst, and the activated resin frozen in 10 ml aliquots until needed for embedding specimen. Glomeruli were identified in 1 μm (micron) sections stained with toluidine blue, and thin sections were cut at 70 nm (nanometer) thickness using a Reichert Jung Ultracut E ultramicrotome (Cambridge Instrument Co, Vienna, Austria).”
(§3) Mice (DKO mice are null for both the collagen α3(IV) and integrin α1 genes) were injected with TGF-β1 inhibitors FK506 (2 μg/gram body weight, twice weekly, intraperitoneal injections) or Biogen's TGF-β1 soluble receptor (25 μg per injection, twice weekly, intravenous injections) starting at four weeks of age. The kidneys were taken at 10 weeks of age and analyzed. […]

Data set [4] concerns double knockout (DKO) mice. Briefly: TGF-β1 inhibitors in double knockout mice, urinary albumin (proteinuria) by gel electrophoresis. The format is in vivo, mouse. The protocol: Urine samples were collected at weekly intervals and 0.5 μl fractionated by electrophoresis through 10% denaturing acrylamide gels. The protein in the gels was stained with coomassie blue and photographed. Bovine serum albumin was used as a molecular weight standard.
Mice (DKO mice are null for both the collagen α3(IV) and integrin α1 genes) were injected with TGF-β1 inhibitors FK506 (2 μg/gram body weight, twice weekly, intraperitoneal injections) or Biogen's TGF-β1 soluble receptor (25 μg per injection, twice weekly, intravenous injections) starting at four weeks of age. The kidneys were taken at 10 weeks of age and analyzed. The 10 week time point was chosen since, in the double knockouts, the disease typically progresses to the point where significant irregular thickening of the GBM is observed, and the animals are beginning to progress towards end stage renal failure. Thus, if the TGF-β1 inhibitors are to provide additional protective benefits, those benefits should be evident at this stage in GBM disease progression. […] A typical example of these differences is illustrated in FIG. 14. […]
Proteinuria was examined in these same mice collected weekly during the course of treatment. Samples (equivalent to approximately one half of one microliter) were analyzed by electrophoresis on polyacrylamide gels. […]

Data set [5] concerns 129 Sv/J Alport mouse. Description: Dual immunofluorescence staining for laminin α2 chain in glomeruli of treated Alport mice. The format is in vivo. To be noted: 7 week old 129 Sv/J Alport mouse. The protocol:
as §2
In dual fluorescence analysis, fresh renal cortex was embedded in Tissue Tek aqueous embedding compound, snap frozen, and cut at 4 microns on a cryostat. Slides were postfixed in cold (−20° C.) 100% acetone for 10 minutes, and then air dried overnight. Tissue was rehydrated by three washes in PBS for 10 minutes each. The primary antibodies were diluted together in 7% non-fat dry milk (BioRad). An anti-entactin antibody (Chemicon Inc.) was used as a known marker for glomerular basement membrane at a dilution of 1:200. The laminin α2 chain-specific antibody was a gift from Dr. Peter Yurchenco (Robert Wood Johnson Medical School, Piscataway, N.J.). The specificity of this antibody for the laminin α2 chain was illustrated in Cheng et al., J. Biol. Chem., 272:31525-31532, 1997. The antibody was used at a concentration of 1:10. Primary antibodies were allowed to react overnight at 4° C. in a humidified dish. […]

Data set [6] deals with double knockout mice. Description: Northern blot of kidney RNAs (matrix molecules, Timp) in double knockout mice treated with TGF-β1 inhibitors. Type of data set: in vivo, mouse. To be noted: 10 week old double knockout mice; untreated show nine-fold reduction relative to control. The protocol:
A. Northern Blot Analysis: Kidneys were removed and snap frozen in liquid nitrogen and ground to a powder in liquid nitrogen using a mortar and pestle. The powder was solubilized in TRIZOL reagent (GibCo/BRL, Grand Island, N.Y.) using 5 ml of reagent per kidney. Total cellular RNA was extracted according to the manufacturer's instructions. Twenty micrograms (20 μg) of RNA was fractionated on a 1.0% agarose/formaldehyde/MOPS (3-(N-morpholino)propanesulfonic acid) gel by electrophoresis at 80V for 4 hours. Gels were soaked in water for 45 minutes, and transferred to Hybond N (uncharged nylon, New England Nuclear, Inc., Boston, Mass.) by capillary blot overnight using 750 mM ammonium acetate (in water) as a transfer buffer. The RNA was UV crosslinked to the blot using a Stratalinker (Stratagene, Inc., LaJolla, Calif.). […] The quality of the RNA preparations and the consistency of loading was assessed by staining gels with ethidium bromide and scanning the 18S and 28S ribosomal RNA bands using a Gel Imager 2000 digital imaging system instrument and software package (Applied Imaging, Santa Clara, Calif.). […] Quantitative densitometric scanning confirmed no more than a 10% variance in sample loading. […] Quantitative differences in expression were assessed by phosphorimage analysis using a BioRad GS-525 phosphorimager (Bio Rad, Inc., Hercules, Calif.), and subtracted for background hybridization. […]

Data set [7] deals with double knockout mice. Description: Immunoperoxidase staining for collagen type I and fibronectin in tubulointerstitium of double knockout mice. To be noted: 10 week old double knockout mice. The format is in vivo, mouse.
From the text: E. Immunoperoxidase Detection: The immunoperoxidase detection method was used in immunostaining for TGF-β1 in glomeruli as well as fibronectin and collagen type I in tubunointerstitium. The collagen type I antibody is rabbit anti-mouse, and was purchased from Biogenesis, Inc. (Sandown, N.H.). The antisera was used at a 1:100 dilution for immunoperoxidase staining. The fibronectin antibody used was the same as for immunfluorescence staining (a rabbit anti-human fibronectin antisera from Sigma Chemical Company, St. Louis, Mo.), and was used at a 1:100 dilution. […]
as §3
The role of TGF-β1 in upregulation of matrix proteins and in renal fibrosis has been well established (Yang et al., J. Am. Soc. Nephrol., 5:1610-1617, 1995; Border and Ruoslahti, J. Clin. Invest., 90:1-7, 1992). […] Animals injected with TGF-β1 inhibitors were analyzed using three markers for interstitial fibrosis and compared directly with 10 week old double knockout animals that were not treated with inhibitors. […]

Consider `C=CC[C@@H]1/C=C(\C)C[C@H](C)C[C@H](OC)[C@H]2O[C@@](O)(C(=O)C(=O)N3CCCC[C@H]3C(=O)O[C@H](/C(C)=C/[C@@H]3CC[C@@H](O)[C@H](OC)C3)[C@H](C)[C@@H](O)CC1=O)[C@H](C)C[C@@H]2OC` [FK506, tacrolimus], for which, in data set [1], the “GBM thickening (transmission electron microscopy)” value is reported as “obvious lack of basement membrane thickening” and the “Podocyte foot process architecture (transmission electron microscopy)” value was “significant degree of swelling in the foot processes”. The “Surface of the glomerulus / podocyte foot processes (scanning electron microscopy)” value in data set [2] is listed as “looks much the same as that in the untreated Alport mouse”. In addition, the “Focal GBM thickening and foot process effacement (transmission electron microscopy)” value in data set [3] is “marked reduction of both focal GBM thickening and foot process effacement”. The “Performance of the glomerular filter (urinary albumin)” value in data set [4] (double knockout mice, relative to untreated double knockout mice, urine collected weekly) is reported as “markedly improved”. In data set [4] (normal and DKO mice treated with FK506), the “Urinary protein bands related to nephrotoxic effects” value is “diffuse group of bands evident at every timepoint”. Also, the “Accumulation of laminin α2 in the GBM” value in data set [5] is “does not prevent the accumulation of laminin α2”. The “Timp-3 mRNA expression in kidney” value in data set [6] is reported as “reduction in Timp-3 expression is not observed”. In addition, the “Collagen type I accumulation in interstitium of renal cortex” value in data set [7] is “relative absence of collagen type I accumulation”.
